Data as given in patent US20240123080A1, “CYTOTOXIC COMPOUNDS AND CONJUGATES THEREOF” (Seagen Inc., priority 2022, published 2024).
*1 amine or outer side, *2 acyl side, *3 side chain or, on linkers, in order; H or OH if unused. Where a SMILES comes first, the peptide text is derived from it. [ ]: non-standard residue; d: D form. The star is where a group is joined. Dolaproine = CO[C@@H]([C@@H]1CCCN1)[C@@H](C)C(=O)O; Dil = CC[C@H](C)[C@H](NC)[C@@H](CC(=O)O)OC; X11 = C[S+]([O-])NC[C@H](N[*:1])C(=O)[*:2]; Met(O2) = CS(=O)(=O)CC[C@H](N)C(=O)O; X9 = CCN([C@@H](CO)C(=O)[*:2])[*:1]; X1 = C[C@@H](N*)[C@@H](O)c1ccccc1; X10 = C[C@H]1OC(=O)N[C@@H]1C(=O)*; Hyp = O=C(O)[C@@H]1C[C@@H](O)CN1; Phe(ol) = N[C@H](CO)Cc1ccccc1; X4 = CN1C(=O)OC(C)(C)C1C(=O)*; X6 = CN(C)[C@@H](CCO)C(=O)*; X8 = CN1C(=O)OC[C@H]1C(=O)*; X5 = O=C1N[C@H](C(=O)*)CO1; NMeS = CN[C@@H](CO)C(=O)O; hSer = N[C@@H](CCO)C(=O)O; X7 = O=C1NC(C(=O)*)CCO1; Dap = NC[C@H](N)C(=O)O; Ms = CS(=O)(=O)*

How the values were obtained:
Assay in all cases: In vitro cytotoxicity, cell proliferation assay (CellTiter-Glo, 96 h)
Type in all cases: cell-based
DEL ALCL = settings: auristatin free drug
Method: (§1) The cytotoxicity of free drugs and drug conjugates were measured by a cell proliferation assay employing the protocol described in Promega Corp. Technical Bulletin TB288; and Mendoza et al., 2002, Cancer Res. 62:5485-5488), the methods of which are specifically incorporated by reference herein. Briefly, an aliquot of 40 μl of cell culture containing about 400 cells in medium is deposited in each well of a 384-well, opaque-walled plate. A 10 μL aliquot of free drug or drug conjugate is added to the experimental wells and incubated for 96 h and are then equilibrated to room temperature for approximately 30 minutes whereupon a volume of CellTiter-Glo™ reagent equal to the volume of cell culture medium present in each well is added. The contents are mixed for 2 minutes on an orbital shaker to induce cell lysis and the plate is incubated at room temperature for 10 minutes to stabilize the luminescence signal for recordation.

L540cy HL = settings: auristatin free drug
Method: as §1

Karpas299 NHL = settings: Homo sapiens, KARPAS-299, auristatin free drug
Method: as §1

| SMILES | IC50 (DEL ALCL) | IC50 (L540cy HL) | IC50 (Karpas299 NHL) |
| --- | --- | --- | --- |
| CC[C@H](C)[C@@H]([C@@H](CC(=O)N1CCC[C@H]1[C@H](OC)[C@@H](C)C(=O)N[C@@H](Cc1ccccc1)C(=O)O)OC)N(C)C(=O)[C@@H](NC(=O)[C@H](CO)NC)C(C)C [Comparative Example A, reference compound] (H-[NMeS]V[Dil][Dolaproine]F-OH) | 209 nM | > 1000 nM | 253 nM |
| CC[C@H](C)[C@@H]([C@@H](CC(=O)N1CCC[C@H]1[C@H](OC)[C@@H](C)C(=O)N[C@@H](Cc1ccccc1)C(=O)O)OC)N(C)C(=O)[C@@H](NC(=O)[C@@H]1COC(=O)N1C)C(C)C [Comparative Example C, reference compound] (X8-V[Dil][Dolaproine]F-OH) | 342 nM | 284 nM | 218 nM |
| CC[C@H](C)[C@@H]([C@@H](CC(=O)N1CCC[C@H]1[C@H](OC)[C@@H](C)C(=O)N[C@H](CO)Cc1ccccc1)OC)N(C)C(=O)[C@@H](NC(=O)[C@H](CCO)N(C)C)C(C)C [Example 9] (X6-V[Dil][Dolaproine][Phe(ol)]) | 0.8 nM | 4 nM | 0.9 nM |
| CC[C@H](C)[C@@H]([C@@H](CC(=O)N1CCC[C@H]1[C@H](OC)[C@@H](C)C(=O)N[C@H](C)[C@@H](O)c1ccccc1)OC)N(C)C(=O)[C@@H](NC(=O)[C@H]([C@@H](C)O)N(C)C)C(C)C [Example 10] | 0.4 nM | 3 nM | 0.5 nM |
| CC[C@H](C)[C@@H]([C@@H](CC(=O)N1CCC[C@H]1[C@H](OC)[C@@H](C)C(=O)N[C@H](C)[C@@H](O)c1ccccc1)OC)N(C)C(=O)[C@@H](NC(=O)[C@@H](CO)N(C)C)C(C)C [Example 11] | 1 nM | 6 nM | 1 nM |
| CCN[C@@H](CO)C(=O)N[C@H](C(=O)N(C)[C@@H]([C@@H](C)CC)[C@@H](CC(=O)N1CCC[C@H]1[C@H](OC)[C@@H](C)C(=O)N[C@H](CO)Cc1ccccc1)OC)C(C)C [Example 15] (H-[X9]V[Dil][Dolaproine][Phe(ol)]) | 0.7 nM | 3.9 nM | 2.3 nM |
| CC[C@H](C)[C@@H]([C@@H](CC(=O)N1CCC[C@H]1[C@H](OC)[C@@H](C)C(=O)N[C@H](CO)Cc1ccccc1)OC)N(C)C(=O)[C@@H](NC(=O)C[C@@H](NC)[C@@H](C)O)C(C)C [Example 22] | 5.8 nM | 16 nM | 13 nM |
| CC[C@H](C)[C@@H]([C@@H](CC(=O)N1CCC[C@H]1[C@H](OC)[C@@H](C)C(=O)N[C@H](CO)Cc1ccccc1)OC)N(C)C(=O)[C@@H](NC(=O)[C@@H](N)CO)C(C)C [Example 23] (H-SV[Dil][Dolaproine][Phe(ol)]) | 17 nM | 662 nM | 66 nM |
| CC[C@H](C)[C@@H]([C@@H](CC(=O)N1CCC[C@H]1[C@H](OC)[C@@H](C)C(=O)N[C@H](CO)Cc1ccccc1)OC)N(C)C(=O)[C@@H](NC(=O)[C@@H](N)CCO)C(C)C [Example 24] (H-[hSer]V[Dil][Dolaproine][Phe(ol)]) | 13 nM | 621 nM | 43 nM |
| CC[C@H](C)[C@@H]([C@@H](CC(=O)N1CCC[C@H]1[C@H](OC)[C@@H](C)C(=O)N[C@H](CO)Cc1ccccc1)OC)N(C)C(=O)[C@@H](NC(=O)[C@@H](N)[C@@H](C)O)C(C)C [Example 25] (H-TV[Dil][Dolaproine][Phe(ol)]) | 18.9 nM | 457 nM | 62 nM |
| CC[C@H](C)[C@@H]([C@@H](CC(=O)N1CCC[C@H]1[C@H](OC)[C@@H](C)C(=O)N[C@H](C)[C@@H](O)c1ccccc1)OC)N(C)C(=O)[C@@H](NC(=O)[C@H](N)CO)C(C)C [Example 26] (H-[dS]V[Dil][Dolaproine]-X1) | 4.2 nM | 20 nM | 5 nM |
| CC[C@H](C)[C@@H]([C@@H](CC(=O)N1CCC[C@H]1[C@H](OC)[C@@H](C)C(=O)N[C@H](C)[C@@H](O)c1ccccc1)OC)N(C)C(=O)[C@@H](NC(=O)[C@H](N)[C@H](C)O)C(C)C [Example 27] (H-[dT]V[Dil][Dolaproine]-X1) | 1.9 nM | 13 nM | 2.3 nM |
| CC[C@H](C)[C@@H]([C@@H](CC(=O)N1CCC[C@H]1[C@H](OC)[C@@H](C)C(=O)N[C@H](CO)Cc1ccccc1)OC)N(C)C(=O)[C@@H](NC(=O)[C@@H]1COC(=O)N1C)C(C)C [Example 36] (X8-V[Dil][Dolaproine][Phe(ol)]) | 6.7 nM | 197 nM | 27 nM |
| CC[C@H](C)[C@@H]([C@@H](CC(=O)N1CCC[C@H]1[C@H](OC)[C@@H](C)C(=O)N[C@H](C)[C@@H](O)c1ccccc1)OC)N(C)C(=O)[C@@H](NC(=O)[C@@H]1COC(=O)N1C)C(C)C [Example 37] | > 1000 nM | > 1000 nM | > 1000 nM |
| CC[C@H](C)[C@@H]([C@@H](CC(=O)N1CCC[C@H]1[C@H](OC)[C@@H](C)C(=O)NCCc1ccccc1)OC)N(C)C(=O)[C@@H](NC(=O)[C@@H]1COC(=O)N1C)C(C)C [Example 38] | 148 nM | 512 nM | > 1000 nM |
| CC[C@H](C)[C@@H]([C@@H](CC(=O)N1CCC[C@H]1[C@H](OC)[C@@H](C)C(=O)N[C@@H](Cc1ccccc1)c1nccs1)OC)N(C)C(=O)[C@@H](NC(=O)[C@@H]1COC(=O)N1C)C(C)C [Example 39] | 512 nM | > 1000 nM | > 1000 nM |
| CC[C@H](C)[C@@H]([C@@H](CC(=O)N1CCC[C@H]1[C@H](OC)[C@@H](C)C(=O)N[C@H](CO)Cc1ccccc1)OC)N(C)C(=O)[C@@H](NC(=O)[C@@H]1COC(=O)N1)C(C)C [Example 40] (X5-V[Dil][Dolaproine][Phe(ol)]) | 12.3 nM | 442 nM | 60 nM |
| CC[C@H](C)[C@@H]([C@@H](CC(=O)N1CCC[C@H]1[C@H](OC)[C@@H](C)C(=O)N[C@H](CO)Cc1ccccc1)OC)N(C)C(=O)[C@@H](NC(=O)C1CCOC(=O)N1)C(C)C (stereo partly drawn) [Example 41] (X7-V[Dil][Dolaproine][Phe(ol)]) | 15 nM | 457 nM | 62 nM |
| CC[C@H](C)[C@@H]([C@@H](CC(=O)N1CCC[C@H]1[C@H](OC)[C@@H](C)C(=O)N[C@H](CO)Cc1ccccc1)OC)N(C)C(=O)[C@@H](NC(=O)[C@H]1NC(=O)O[C@@H]1C)C(C)C [Example 42] (X10-V[Dil][Dolaproine][Phe(ol)]) | 16 nM | 481 nM | 64 nM |
| CC[C@H](C)[C@@H]([C@@H](CC(=O)N1CCC[C@H]1[C@H](OC)[C@@H](C)C(=O)N[C@H](CO)Cc1ccccc1)OC)N(C)C(=O)[C@@H](NC(=O)C1N(C)C(=O)OC1(C)C)C(C)C (stereo partly drawn) [Example 43] (X4-V[Dil][Dolaproine][Phe(ol)]) | 3.2 nM | 19 nM | 5.9 nM |
| CC[C@H](C)[C@@H]([C@@H](CC(=O)N1CCC[C@H]1[C@H](OC)[C@@H](C)C(=O)N[C@H](CO)Cc1ccccc1)OC)N(C)C(=O)[C@@H](NC(=O)[C@@H](N)CNC(C)=O)C(C)C [Example 46] (H-[Dap](Ac)V[Dil][Dolaproine][Phe(ol)]) | 141 nM | > 1000 nM | 264 nM |
| CC[C@H](C)[C@@H]([C@@H](CC(=O)N1CCC[C@H]1[C@H](OC)[C@@H](C)C(=O)N[C@H](CO)Cc1ccccc1)OC)N(C)C(=O)[C@@H](NC(=O)[C@@H](N)CCS(C)(=O)=O)C(C)C [Example 47] (H-[Met(O2)]V[Dil][Dolaproine][Phe(ol)]) | > 1000 nM | > 1000 nM | > 1000 nM |
| CC[C@H](C)[C@@H]([C@@H](CC(=O)N1CCC[C@H]1[C@H](OC)[C@@H](C)C(=O)N[C@H](CO)Cc1ccccc1)OC)N(C)C(=O)[C@@H](NC(=O)[C@@H](N)CN[S+](C)[O-])C(C)C (stereo partly drawn) [Example 48] (H-[X11]V[Dil][Dolaproine][Phe(ol)]) | 41 nM | > 1000 nM | 110 nM |
| CC[C@H](C)[C@@H]([C@@H](CC(=O)N1CCC[C@H]1[C@H](OC)[C@@H](C)C(=O)N[C@H](CO)Cc1ccccc1)OC)N(C)C(=O)[C@@H](NC(=O)[C@@H]1C[C@@H](O)CN1)C(C)C [Example 49] (H-[Hyp]V[Dil][Dolaproine][Phe(ol)]) | 32 nM | 76 nM | 35 nM |
| CC[C@H](C)[C@@H]([C@@H](CC(=O)N1CCC[C@H]1[C@H](OC)[C@@H](C)C(=O)N[C@H](CO)Cc1ccccc1)OC)N(C)C(=O)[C@@H](NC(=O)[C@@H](N)CNS(C)(=O)=O)C(C)C [Example 50] (H-[Dap](Ms)V[Dil][Dolaproine][Phe(ol)]) | > 1000 nM | > 1000 nM | > 1000 nM |
